This is an account of results in patent publication US20070092877A1, “Bcrm-1 genes and uses thereof” (priority 2003, published 2007).

For the test, the system named is 293T cells stably transfected with a BCRM-1 expression vector. The test can be described thus: clonogenic assays of stably transfected 293T cells with cisplatin. It is filed as cell-based. Conditions: clone with the highest level of BCRM-1 vs control vector transfectants, FIG. 3. The source says:
To investigate whether BCRM-1 could render cells resistant to DNA-damaging agents, 293T cells were stably transfected with a BCRM-1 expression vector (FIG. 3). The BCRM-1 full length EcoRI-XhoI fragment was cloned into the EcoRI-XhoI sites of the pcDNA6/Bsd vector (Clontech, Palo Alto, Calif.). 293T cells were transfected with the BCRM/bsd vector or an empty pcDNA/bsd vector, respectively, by the method described in Example 8 above; Stable transfectants were selected through serial passages in the presence of blasticidin 10 μg/ml (Clontech, Palo Alto, Calif.). These blasticidin-resistant clones were isolated and repicked using the same selection procedure. One of these clones expressed the highest level of BCRM-1 by Western blotting. It was further tested in clonogenic assays and found to be 5-10 times more resistant to DNA damaging agent cisplatin than 293T cells stably transfected with the control vector (FIG. 3).

As for `N.N.[Cl][Pt][Cl]` [cisplatin], the “resistance to cisplatin of the BCRM-1 expressing clone relative to 293T cells stably transfected with the control vector” value is 5-10 times.
